Results reported in patent US7709444B2, “Echinocandin pharmaceutical formulations containing micelle-forming surfactants” (Pfizer Inc., priority 1999, dated 2010).
*1 amine or outer side, *2 acyl side, *3 side chain or, on linkers, in order; H or OH if unused. Where a SMILES comes first, the peptide text is derived from it. Bridges are numbered along the chain shown (N, C = ends). [ ]: non-standard residue; d: D form. The star is where a group is joined. ξ: configuration not given here. pTerphenylCO(4''-OnC5H11) = CCCCCOc1ccc(-c2ccc(-c3ccc(C(=O)*)cc3)cc2)cc1; ξOrn(4,5-diOH) = O=C(C(CC(O)C(O)N[*:3])N[*:1])[*:2]; ξhTyr(βξ-OH,γξ-OH) = NC(C(=O)O)C(O)C(O)c1ccc(O)cc1; ξPro(3ξ-OH,4ξ-Me) = CC1CNC(C(=O)O)C1O; Hyp = O=C(O)[CH]1C[CH](O)CN1

Key:
[1] = Stability of solution formulations, related substances by reverse phase HPLC, storage at 40° C.; assay type: physicochemical
Method: (§1) The stability of solution and freeze-dried formulations was evaluated by monitoring a sample of the formulation for the percent increase in related substances by reverse phase HPLC at initial, 2 weeks and 4 weeks of storage at 40° C.

[2] = Stability of freeze-dried formulations, related substances by reverse phase HPLC, storage at 40° C.; assay type: physicochemical; details: 6(a) Potency 1, Poly 80(25), Cit(1.9), Man(50)
Method: as §1

With `CCCCCOc1ccc(-c2ccc(-c3ccc(C(=O)NC4CC(O)C(O)NC(=O)C5C(O)C(C)CN5C(=O)C(C(C)O)NC(=O)C(C(O)C(O)c5ccc(O)cc5)NC(=O)C5CC(O)CN5C(=O)C(C(C)O)NC4=O)cc3)cc2)cc1` (stereo not drawn) [Compound 6(a)] ({pTerphenylCO(4''-OnC5H11)}-[ξOrn(4,5-diOH)]T[Hyp][ξhTyr(βξ-OH,γξ-OH)]T[ξPro(3ξ-OH,4ξ-Me)]; lactam 1-C; configuration not given here) the “Percent Related Substances” value ([1]; 6(a) 1 mg/ml, Poly 80(25), Ace(0.6), Man(50), 0 wks) was 3.15%, the “Percent Related Substances” value ([1]; 6(a) 1 mg/ml, Poly 80(25), Ace(0.6), Man(50), 2 wks) was 11.37% and the “Percent Related Substances” value ([1]; 6(a) 1 mg/ml, Poly 80(25), Ace(0.6), Man(50), 4 wks) was 19.44%. The “Percent Related Substances” value ([1]; 6(a) 1 mg/ml, Poly 80(25), Ace(3), Man(50), 0 wks) was 3.33%, the “Percent Related Substances” value ([1]; 6(a) 1 mg/ml, Poly 80(25), Ace(3), Man(50), 2 wks) was 12.20% and the “Percent Related Substances” value ([1]; 6(a) 1 mg/ml, Poly 80(25), Ace(3), Man(50), 4 wks) was 18.29%. The “Percent Related Substances” value ([1]; 6(a) 1 mg/ml, Poly 80(25), Ace(6), Man(50), 0 wks) was 3.27%, the “Percent Related Substances” value ([1]; 6(a) 1 mg/ml, Poly 80(25), Ace(6), Man(50), 2 wks) was 11.07% and the “Percent Related Substances” value ([1]; 6(a) 1 mg/ml, Poly 80(25), Ace(6), Man(50), 4 wks) was 19.59%. The “Percent Related Substances” value ([1]; 6(a) 1 mg/ml, Poly 80(25), Cit(1.9), Man(50), 0 wks) was 3.42%, the “Percent Related Substances” value ([1]; 6(a) 1 mg/ml, Poly 80(25), Cit(1.9), Man(50), 2 wks) was 8.91% and the “Percent Related Substances” value ([1]; 6(a) 1 mg/ml, Poly 80(25), Cit(1.9), Man(50), 4 wks) was 18.04%. For the same compound, the “Percent Related Substances” value ([1]; 6(a) 1 mg/ml, Poly 80(25), Cit(9.6), Man(50), 0 wks) was 3.36%, the “Percent Related Substances” value ([1]; 6(a) 1 mg/ml, Poly 80(25), Cit(9.6), Man(50), 2 wks) was 9.25% and the “Percent Related Substances” value ([1]; 6(a) 1 mg/ml, Poly 80(25), Cit(9.6), Man(50), 4 wks) was 17.29%. The “Percent Related Substances” value ([1]; 6(a) 1 mg/ml, Poly 80(25), Cit(19.2), Man(50), 0 wks) was 3.47%, the “Percent Related Substances” value ([1]; 6(a) 1 mg/ml, Poly 80(25), Cit(19.2), Man(50), 2 wks) was 9.70% and the “Percent Related Substances” value ([1]; 6(a) 1 mg/ml, Poly 80(25), Cit(19.2), Man(50), 4 wks) was 18.02%. For the same compound, the “Percent Related Substances” value ([1]; 6(a) 10 mg/ml, Poly 80(5) + Poly 20(20), Ace(6), 0 wks) was 2.67%, the “Percent Related Substances” value ([1]; 6(a) 10 mg/ml, Poly 80(5) + Poly 20(20), Ace(6), 2 wks) was 9.77% and the “Percent Related Substances” value ([1]; 6(a) 10 mg/ml, Poly 80(5) + Poly 20(20), Ace(6), 4 wks) was 15.57%. The “Percent Related Substances” value ([1]; 6(a) 10 mg/ml, Poly 80(15) + Poly 20(10), Ace(6), 0 wks) was 2.70%, the “Percent Related Substances” value ([1]; 6(a) 10 mg/ml, Poly 80(15) + Poly 20(10), Ace(6), 2 wks) was 10.55% and the “Percent Related Substances” value ([1]; 6(a) 10 mg/ml, Poly 80(15) + Poly 20(10), Ace(6), 4 wks) was 15.34%. For the same compound, the “Percent Related Substances” value ([1]; 6(a) 10 mg/ml, Poly 80(20) + Poly 20(5), Ace(6), 0 wks) was 2.65%, the “Percent Related Substances” value ([1]; 6(a) 10 mg/ml, Poly 80(20) + Poly 20(5), Ace(6), 2 wks) was 11.06% and the “Percent Related Substances” value ([1]; 6(a) 10 mg/ml, Poly 80(20) + Poly 20(5), Ace(6), 4 wks) was 15.44%. For the same compound, the “Percent Related Substances” value ([1]; 6(a) 10 mg/ml, Poly 80(25) only, no buffer, 0 wks) was 3.62%, the “Percent Related Substances” value ([1]; 6(a) 10 mg/ml, Poly 80(25) only, no buffer, 2 wks) was 18.71% and the “Percent Related Substances” value ([1]; 6(a) 10 mg/ml, Poly 80(25) only, no buffer, 4 wks) was 27.91%. For the same compound, the “Percent Related Substances” value ([1]; 6(a) 10 mg/ml, Poly 80(25), Ace(3), 0 wks) was 2.51%, the “Percent Related Substances” value ([1]; 6(a) 10 mg/ml, Poly 80(25), Ace(3), 2 wks) was 9.46% and the “Percent Related Substances” value ([1]; 6(a) 10 mg/ml, Poly 80(25), Ace(3), 4 wks) was 14.39%. The “Percent Related Substances” value ([1]; 6(a) 10 mg/ml, Poly 80(25), Ace(6), co-solvent 20% PEG400, 0 wks) was 2.83%, the “Percent Related Substances” value ([1]; 6(a) 10 mg/ml, Poly 80(25), Ace(6), co-solvent 20% PEG400, 2 wks) was 9.69% and the “Percent Related Substances” value ([1]; 6(a) 10 mg/ml, Poly 80(25), Ace(6), co-solvent 20% PEG400, 4 wks) was 14.35%. The “Percent Related Substances” value ([1]; 6(a) 10 mg/ml, Poly 80(25), Ace(6), co-solvent 20% PPG, 0 wks) was 2.71%, the “Percent Related Substances” value ([1]; 6(a) 10 mg/ml, Poly 80(25), Ace(6), co-solvent 20% PPG, 2 wks) was 10.58% and the “Percent Related Substances” value ([1]; 6(a) 10 mg/ml, Poly 80(25), Ace(6), co-solvent 20% PPG, 4 wks) was 13.40%. For the same compound, the “Percent Related Substances” value ([1]; 6(a) 10 mg/ml, Poly 80(25), Ace(6), co-solvent 40% PEG400, 0 wks) was 2.57%, the “Percent Related Substances” value ([1]; 6(a) 10 mg/ml, Poly 80(25), Ace(6), co-solvent 40% PEG400, 2 wks) was 10.38% and the “Percent Related Substances” value ([1]; 6(a) 10 mg/ml, Poly 80(25), Ace(6), co-solvent 40% PEG400, 4 wks) was 13.36%. For the same compound, the “Percent Related Substances” value ([1]; 6(a) 10 mg/ml, Poly 80(25), Ace(6), co-solvent 40% PPG, 0 wks) was 2.72%, the “Percent Related Substances” value ([1]; 6(a) 10 mg/ml, Poly 80(25), Ace(6), co-solvent 40% PPG, 2 wks) was 9.84% and the “Percent Related Substances” value ([1]; 6(a) 10 mg/ml, Poly 80(25), Ace(6), co-solvent 40% PPG, 4 wks) was 12.65%. The “Percent Related Substances” value ([1]; 6(a) 10 mg/ml, Poly 80(25), no buffer, Man(50), 0 wks) was 3.68%, the “Percent Related Substances” value ([1]; 6(a) 10 mg/ml, Poly 80(25), no buffer, Man(50), 2 wks) was 16.65% and the “Percent Related Substances” value ([1]; 6(a) 10 mg/ml, Poly 80(25), no buffer, Man(50), 4 wks) was 23.68%. For the same compound, the “Percent Related Substances” value ([1]; 6(a) 10 mg/ml, Poly 80(25), no buffer, co-solvent 1% PEG 3350, 0 wks) was 3.68%, the “Percent Related Substances” value ([1]; 6(a) 10 mg/ml, Poly 80(25), no buffer, co-solvent 1% PEG 3350, 2 wks) was 21.56% and the “Percent Related Substances” value ([1]; 6(a) 10 mg/ml, Poly 80(25), no buffer, co-solvent 40% PEG 400, 0 wks) was 3.73%. For the same compound, the “Percent Related Substances” value ([1]; 6(a) 10 mg/ml, Poly 80(25), no buffer, co-solvent 40% PEG 400, 2 wks) was 15.26%, the “Percent Related Substances” value ([1]; 6(a) 10 mg/ml, Poly 80(25), no buffer, co-solvent 40% PEG 400, 4 wks) was 23.99% and the “% Related Substances” value ([2]; 0 wks) was 3.22%. The “% Related Substances” value ([2]; 2 wks) was 10.24%.
